Data set [1] deals with CHO-K1 cells (hprt gene). Nature of the data set: CHO/HPRT mutation assay. The data set is classed as cell-based, Chinese hamster. To be noted: Table 4, With S9; lilial 500 µM, 3MC 2 µg/ml. How it is done: The test with metabolic activation was performed as described in the OECD protocol, the ASTM standard[23] and other protocols[30],[31] and publications. For the test, cryopreserved CHO-K1 cells after the mutant cleansing were used. Mutant cleansing was performed according to[30], i.e. cells were cultivated three days in HAT medium, one day in HT medium and then frozen.
One passage after the thawing, 1 × 10^6 cells were seeded in 60 mm cultivation plates as described in[32]. […] The final concentration of the solvent, DMSO, was 1%. […] EMS at final concentration 2 mM as recommended in[31] served as a positive control. 3-MC at final concentration […][22] served as a positive control for metabolic activation. 1% DMSO was used as a VC. Sole cultivation medium served as a negative control (NC). After 4 h, the medium with tested substances was removed, plates were washed with PBS and fresh medium with 10% FBS was added.
During the expression period (1 week), the cells on all 60 mm plates were passaged once. On day 8, cells were trypsinized, resuspended, counted and 2 × 10^5 cells of each plate were seeded on 60 mm plates in triplicates in the presence of a selective agents, 6-TG (30 µM) as described in[32]. […] 300 cells without the selective agent were seeded in a parallel to evaluate plating efficiency (PE). On day 15, the plates were washed with PBS, cells were fixed with ice cold methanol for 10 min and stained with 0.05% crystal violet in water for 30 min[33]. After washing with water, formed colonies were counted using Schuett Count (Schuett-biotec, Göttingen, Germany). Calculations were done as described in[29]. PE was calculated according to a general Eq. 1. Particular PE at selective conditions was calculated according to Eq. 2. Particular PE at non-selective conditions was calculated according to Eq. 3. Mutation frequency (MF) was calculated according to Eq. 4.1 PE=numberofcoloniesformed/numberofcellsplated 2 PEselective=numberofmutantcoloniesNMC/200,000 3 PEnon-selective=numberofcoloniesformed/300 4 MF=PEselectiveconditions/PEnon-selectiveconditions

For data set [2], the system named is CHO-K1 cells (hprt gene). The experiment in a line: CHO/HPRT mutation assay. In kind it is cell-based, Chinese hamster. The conditions noted are these: 3MC 2 µg/ml.
Data set [3] has as its system androgen receptor. Nature of the data set: Androgenic activity, transactivation luciferase assay in MDA-kb2. To be noted: MDA-kb2, positive control. From the text: Results were expressed as fold induction (FI), i.e. fold increase compared to vehicle control. According to EPA[28], FI of positive control should be above 4 to meet the performance standard.
The subject of data set [4] is CHO-K1 cells. In kind it is cell-based, Chinese hamster. To be noted: lilial 100 µM, PC 30 μM; for Fold, mean (γH2AX over negative control): above 1.5 indicates genotoxicity. How it is done:
(§1) Briefly, HeLa and CHO-K1 cells were seeded at a concentration of 1 × 10^5 cells/ml into the 96-well plates. CHO-K1 cells were used for comparison with HPRT test. HeLa cells were recommended by the manufacturer of the kit. After 24 h, cells were rinsed with PBS and cultivation medium (“Cell lines” Section) without ATB, with a reduced content of FBS (5%) was added. 30 µM valinomycin (in DMSO) was used as a positive control Samples were applied in the presence of non-toxic sample concentrations, i.e. 100 µM either with or without S9 mix. […] Cells were photographed using a fluorescence microscope (Olympus IX83); filters: DAPI (500 ms) and Cy3 (500 ms). Bioimage analysis in ImageJ software was performed as described previously.

The test system of data set [5] is HeLa cells. Nature of the data set: γH2AX biomarker-based genotoxicity assay, HeLa. The data set is classed as cell-based, human. To be noted: PC 30 μM; for Fold, mean (γH2AX over negative control): above 1.5 indicates genotoxicity. Here is the method:
as §1

The test system of data set [6] is RPTEC/TERT1 cells. The experiment in a line: Nephrotoxicity, RT-qPCR of kidney damage biomarkers. In kind it is cell-based, human. To be noted: 100 µM, 48 h, normalized to GAPDH and ACTB. Here is the method:
RPTEC/TERT1 cells were seeded at a concentration of 2 × 10^5 cells/ml in ProxUp2 medium into 60 mm Petri dishes. After 24 h, the cells were washed with PBS and […] metabolites (100 μM) were applied in fresh ProxUp2 medium. The cells were incubated with samples for 48 h, after which the cells were washed with PBS and dishes were frozen in - 160 °C. The RNA was isolated using RNeasy Plus Mini Kit (Qiagen, Hilden, Germany). The RNA concentration and purity was determined with NanoDrop One (ThermoFisher Scientific) spectrophotometr. The cDNA synthesis was performed from 0.1 μg of total RNA with an iScript Reverse Transcription Supermix (Bio-Rad, Hercules, California, USA). Quantitative real-time PCR (qPCR) was performed using the qPCR Bio-Rad C100 Touch System (Bio-Rad) with a 96-well block. The reaction mixture consisted of 1 μl of specific 20 × PrimePCR Assay (Bio-Rad), 10 μl of 2 × SsoAdvance Universal Supermix (Bio-Rad), 2 μl of cDNA sample, 7 μl of nuclease-free water. The final reaction volume was 20 μl. […] Cycling parameters were: initial denaturation at 95 °C for 2 min, followed by 40 cycles of 95 °C for 5 s and 60 °C for 30 s. Fluorescence values were acquired after each extension phase. Samples were analyzed in triplicate, and samples with a standard deviation of duplicates > 0.2 Ct were re-analyzed. A non-template control containing nuclease-free water instead of cDNA as well as non-RT control containing purified RNA without reverse transcription was used. The real-time PCR study followed the MIQE guidelines. Relative transcript levels of the estimated genes in the cell lines were compared using the software CFX Maestro Software 2.3 (Bio-Rad).
In general terms: Quantitative PCR measures a nucleic acid by following its amplification.

On the set-up of data set [7]: method as in PMID 32763837. The conditions noted are these: children and adolescents in Germany ref 40; cited from earlier work.
Data set [8] relates to rats. To be noted: rats ref 41; cited from earlier work.
The subject of data set [9] is MCF-7 human breast cancer cells. To be noted: lilial 100 µM, estrogen 10 nM; unaffected control 1.8 doublings ref 8; cited from earlier work.
[10] abbreviates: Table 4, Without S9, lilial 500 µM.

These results are taken from article PMC10613275 (Scientific Reports, 2023).

Like-named read-outs stand apart in the source and are kept apart here. Marks after values point to notes of the source that are not given here. A value given as a limit tells only on which side of the number the result lay.

On to `Cc1ccc2cc3c(ccc4ccccc43)c3c2c1CC3` [3MC, 3-methylcholanthren], for which, in [1], the “NMC (number of mutant colonies)” value was 17 ± 2 and the “PE (%) plating efficiency” value is recorded as 55 ± 4%. Also, the “MF (/106) mutation frequency” value in data set [2] (Table 4, With S9, lilial 500 µM) is listed as 152 ± 14 /106. In addition, the “MF (/10^6) mutation frequency” value in data set [2] (Table 4, Without S9) is 25 ± 31 /10^6. Moreover, in data set [2] (setting [10]), the “NMC (number of mutant colonies)” value worked out at 3 ± 4 and the “PE (%) plating efficiency” value is recorded as 66 ± 3%.

Take `C[C@]12CCC(=O)C[C@@H]1CC[C@@H]1[C@@H]2CC[C@]2(C)[C@@H](O)CC[C@@H]12` [DHT, dihydrotestosterone, reference compound]: the “Concentration from which fold induction (FI) significantly increased” value in data set [3] was at least 0.5 nM.

On to `CC(C)[C@@H]1NC(=O)[C@H](C)OC(=O)[C@@H](C(C)C)NC(=O)[C@@H](C(C)C)OC(=O)[C@H](C(C)C)NC(=O)[C@H](C)OC(=O)[C@@H](C(C)C)NC(=O)[C@@H](C(C)C)OC(=O)[C@H](C(C)C)NC(=O)[C@H](C)OC(=O)[C@@H](C(C)C)NC(=O)[C@@H](C(C)C)OC1=O` [PC, valinomycin], for which the “MoA (mean fluorescence values over area of the nuclei)” value in [4] (CHO-K1, 4h_S9) is recorded as 0.99; in data set [4] (CHO-K1, 4 h, without S9), 1.14; in [4] (CHO-K1, 24 h), 5.26; in data set [5] (4h_S9, lilial 100 µM), 0.29**; in data set [5] (4 h, without S9, lilial 100 µM) it was 0.13*; in data set [5] (24 h, lilial 100 µM), 0.55*. Besides, the “RA (%), mean (relative area of nuclei)” value in data set [4] (CHO-K1, 4h_S9) was determined as 90.8%; in [4] (CHO-K1, 4 h, without S9), 75.3%; in data set [4] (CHO-K1, 24 h), 48.5%; in data set [5] (4h_S9, lilial 100 µM) it was 97.8%; in data set [5] (4 h, without S9, lilial 100 µM) it was 95.8%; in data set [5] (24 h, lilial 100 µM), 101.5%. In addition, the “Fold, mean (γH2AX over negative control)” value came out at 1.35 in data set [4] (CHO-K1, 4h_S9); 1.45 in data set [4] (CHO-K1, 4 h, without S9); 4.43 in data set [4] (CHO-K1, 24 h); 2.94 in [5] (4h_S9, lilial 100 µM); 2.63 in data set [5] (4 h, without S9, lilial 100 µM); 24.03 in data set [5] (24 h, lilial 100 µM).

Regarding `CN(C)[C@@H]1C(O)=C(C(N)=O)C(=O)[C@@]2(O)C(O)=C3C(=O)c4c(O)cccc4[C@@](C)(O)[C@H]3C[C@@H]12` [Tetracycline], in data set [6], the “Relative fold gene expression, CLU” value is recorded as 4.09*; the “Relative fold gene expression, CST3” value is 1.64*; the “Relative fold gene expression, HMOX” value was 4.93**; the “Relative fold gene expression, IL6” value came to 1.70. Besides, in [6], the “Relative fold gene expression, IL8” value amounted to 1.19; the “Relative fold gene expression, IPO8” value was 1.41**; the “Relative fold gene expression, TIMP1” value is on record as 1.31.

For `CC(Cc1ccc(C(C)(C)CO)cc1)C(=O)O` (stereo not shown) [hydroxy-lysmerylic acid], the “Geometric mean concentration in urine” value in data set [7] was under 0.4 µg/L.

Turning to `CC(Cc1ccc(C(C)(C)C)cc1)C(=O)O` (stereo not shown) [lysmerylic acid], the “Geometric mean concentration in urine” value in [7] is under 0.2 µg/L.

Turning to `CC(C)(C)c1ccc(C(=O)O)cc1` [p-tert-butylbenzoic acid], in data set [7], the “Geometric mean concentration in urine” value was 10.21 µg/L. The “Effects on male reproduction” value in data set [8] is “adverse effects on male reproduction”.

Turning to estrogen [reference compound], the Cell doublings in data set [9] is 5.2 doublings.
